Laboratory results: PMC5430874 (Scientific Reports, 2017)
Substitutions are numbered along the chain they refer to. Where two headings read alike, the source gives them in different places.

Legend:
GPR139 N271A^7×38 = target: T1, GPR139 N271A^7×38 (Homo sapiens, UniProt Q6DWJ6, N271A); assay: Fluo-4 Ca2+-assay, GPR139 mutant N271A; assay type: cell-based; design: key to Emax ± SEM: NE: no effect (loss of activity); details: for EC50: N271A mutant (surface expression 53% of WT); for Change of in vitro potency: N271A mutant versus WT
T1 construct: mGluR5 signal peptide (N); expressed in transfected cells; host or cells: HEK293
T1 sequence (Q6DWJ6 2-353 N271A limits assumed): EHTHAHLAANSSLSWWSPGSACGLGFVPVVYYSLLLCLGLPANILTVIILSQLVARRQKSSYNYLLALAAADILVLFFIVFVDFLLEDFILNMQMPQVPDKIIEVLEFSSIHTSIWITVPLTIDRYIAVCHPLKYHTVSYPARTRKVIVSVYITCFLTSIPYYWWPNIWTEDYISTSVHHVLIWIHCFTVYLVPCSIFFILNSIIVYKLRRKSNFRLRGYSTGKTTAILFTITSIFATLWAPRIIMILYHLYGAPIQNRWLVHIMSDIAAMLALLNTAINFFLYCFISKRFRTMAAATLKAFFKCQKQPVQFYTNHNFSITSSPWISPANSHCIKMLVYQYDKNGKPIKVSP
Source text: (§1) To study the influence of specific amino acids in the predicted binding pocket on receptor function, the desired mutations were introduced into an N-terminally c-myc-tagged wild type human GPR139 (NM_001002911.3) in the pEGFP-N1 vector (BD Biosciences)[32], [33]. As previously described, these plasmids carry the signal peptide of mGluR5 to promote cell surface expression followed by a c-myc epitope to enable detection of total and surface expression by ELISA, followed by an engineered MluI and NotI site for easy insertion of the receptor of interest. Furthermore, the start-codon in the GPR139 sequence was deleted to ensure c-myc-tagging. Mutagenesis was designed in Serial Cloner 2.6 (© Franck Perez [SerialBasics]) and carried out by GenScript (USA). All mutated residues are illustrated in Supplementary Fig. 1b. An untagged GPR139(WT) in pEGFP-N1 was also generated to ensure that the c-myc-tag had no influence on GPR139(WT) function.
(§2) All GPR139 mutants were transfected into HEK293 cells. The HEK293 cells were grown in Dulbecco’s modified Eagle’s medium (DMEM) (Gibco, 41965) supplemented with 10% dialyzed fetal bovine serum (Gibco, 26400, United States origin), 100 units/mL penicillin and 100 μg/mL streptomycin (Gibco, 15140). HEK293 cells were reverse transfected using Lipofectamine2000 (Invitrogen). More specifically two mixtures were made: 1) 10 ng DNA/well + 25 μL Opti-MEM/well and 2) […] Lipofectamine2000/well + 25 μL Opti-MEM/well. The two mixtures were mixed and 50 μL/well was added directly in black 96-well plates with flat clear bottoms for the Fluo-4 Ca^2+-assay (Corning, Falcon, 353219) or in white Opaque 96-well Microplate (PerkinElmer Life, 6005680) for ELISA. 100 μL containing 20,000 cells were added to each well and incubated 48 hours before assays. All plates were coated with poly-D-lysine.
Compound 1a (1a) was kindly provided by H. Lundbeck A/S, Denmark. […] Both compounds were dissolved to 20 mM in DMSO (Sigma, D2650) and subsequently diluted in a HEPES buffer (HBSS (Gibco, 14025) supplemented with 20 mM HEPES + 1 mM MgCl2 + 1 mM CaCl2, pH = 7.4) to a final concentration of 0.5% DMSO in the Fluo-4 Ca^2+-assay. The DMSO level was kept constant for all concentrations of both compounds. DMSO was confirmed not to have any activity by itself at this concentration. L-Trp (T0254) and L -Phe (P2126) were obtained from Sigma-Aldrich and dissolved in buffer.
The Ca^2+ measurements were preformed using the Fluo-4 NW Calcium Assay Kit (Invitrogen, Molecular Probes, F36206) as previously described. Briefly, the Fluo-4 dye loading solution was prepared according to the manufacturer’s instructions by dissolving it in HEPES-buffer supplemented with 2.5 mM probenecid. 50 μL dye loading solution was added to each well. Cells were incubated with the Fluo-4 dye for 60 min at 37 °C, then washed with 100 μL HEPES-buffer. 100 μL HEPES-buffer supplemented with 2.5 mM probenecid was then added to each well and incubated in 10 minutes at 37 °C before measurement. […] Intracellular calcium changes were recorded as indicated on either a NOVOstar (BMG Labtech) at 37 °C with an excitation filter of 485 nm and an emission filters 520 nm or a FlexStation 3 Benchtop Multi-Mode Microplate Reader (Molecular Devices) at 37 °C with an excitation wavelength of 485 nm and emission of 525 nm.
All pharmacological data have been analyzed by using Prism 6.0 (GraphPad Software Inc., San Diego). Fitting of concentration response curves was performed by non-linear regression log(agonist) vs. response (four parameters). Pooled data are shown with standard error of the mean (S.E.M.) and data showing one representative are shown with standard deviation (S.D.). Changes in potency (pEC50) and span of myc-GPR139(WT) in comparison to untagged GPR139(WT) was statistically analyzed with a paired t-test and significance was accepted at p < 0.05. The ELISA data were normalized to surface expression of myc-GPR139(WT) (100%). […]

GPR139 = details: cited from earlier work; for activation of GPR139, concentration range: ref Isberg et al. and Liu et al.
GPR139 H187A^5×43 = target: T2, GPR139 H187A^5×43 (Homo sapiens, UniProt Q6DWJ6, H187A); assay: Fluo-4 Ca2+-assay, GPR139 mutant H187A; assay type: cell-based; details: for EC50: H187A mutant (surface expression 36% of WT)
T2 construct: mGluR5 signal peptide (N); expressed in transfected cells; host or cells: HEK293
T2 sequence (Q6DWJ6 2-353 H187A limits assumed): T1 sequence (Q6DWJ6 2-353 N271A limits assumed) with H186A, A270N
Source text: as §1, §2
Compound 1a (1a) was kindly provided by H. Lundbeck A/S, Denmark. […]
The Ca^2+ measurements were preformed using the Fluo-4 NW Calcium Assay Kit (Invitrogen, Molecular Probes, F36206) as previously described. […] Intracellular calcium changes were recorded as indicated on either a NOVOstar (BMG Labtech) at 37 °C with an excitation filter of 485 nm and an emission filters 520 nm or a FlexStation 3 Benchtop Multi-Mode Microplate Reader (Molecular Devices) at 37 °C with an excitation wavelength of 485 nm and emission of 525 nm.
All pharmacological data have been analyzed by using Prism 6.0 (GraphPad Software Inc., San Diego). […] Changes in potency (pEC50) and span of myc-GPR139(WT) in comparison to untagged GPR139(WT) was statistically analyzed with a paired t-test and significance was accepted at p < 0.05. […]

EC50 (GPR139 N271A^7×38) [µM]	Emax at 30000 µM (GPR139 N271A^7×38; N271A, at 30 mM, normalized to buffer (0%) and 30 mM Phe (100%) on WT) [%]	EC50 (GPR139 H187A^5×43) [µM]	Emax at 8 µM (GPR139 H187A^5×43; H187A, at 8 μM, normalized to buffer (0%) and 8 μM 1a (100%) on WT) [%]	Change of in vitro potency (GPR139 N271A^7×38)	Emax ± SEM (GPR139 N271A^7×38; N271A, at 8 μM, normalized to buffer (0%) and 8 μM 1a (100%) on WT)	Emax (GPR139 H187A^5×43) [%]	Emax ± SEM (GPR139 N271A^7×38; N271A, at 100 μM, normalized to buffer (0%) and 100 μM 7c (100%) on WT)	Compound	activation of GPR139, concentration range (GPR139)	Emax at 10000 µM (GPR139 N271A^7×38; N271A, at 10 mM, normalized to buffer (0%) and 10 mM Trp (100%) on WT) [%]	agonist potency (GPR139; ref Shi et al.)	agonist potency (GPR139; ref Dvorak et al.)
> 31600	38 ± 9	–	–	–	–	–	–	N[C@@H](Cc1ccccc1)C(=O)O [L-Phe, phenylalanine]	hundred-micromolar range	–	–	–
> 7.94	–	> 7.94	35 ± 5	Loss of function	NE*	–	–	COc1cc(OC)cc(C(=O)NNC(=O)Nc2cccc3ccccc23)c1 [Compound 1a]	–	–	ten-nanomolar range	–
> 100	–	6.61	–	Loss of function	–	60 ± 9	NE**	C[C@@H](NC(=O)CNC(=O)c1cccc(Cl)c1)c1ccccc1 (racemic) [Compound 7c]	–	–	–	ten-nanomolar range

Compound	EC50 (GPR139 N271A^7×38) [µM]	Emax at 30000 µM (GPR139 N271A^7×38; N271A, at 30 mM, normalized to buffer (0%) and 30 mM Phe (100%) on WT) [%]	EC50 (GPR139 H187A^5×43) [µM]	Emax at 8 µM (GPR139 H187A^5×43; H187A, at 8 μM, normalized to buffer (0%) and 8 μM 1a (100%) on WT) [%]	Change of in vitro potency (GPR139 N271A^7×38)	Emax ± SEM (GPR139 N271A^7×38; N271A, at 8 μM, normalized to buffer (0%) and 8 μM 1a (100%) on WT)	Emax (GPR139 H187A^5×43) [%]	Emax ± SEM (GPR139 N271A^7×38; N271A, at 100 μM, normalized to buffer (0%) and 100 μM 7c (100%) on WT)	activation of GPR139, concentration range (GPR139)	Emax at 10000 µM (GPR139 N271A^7×38; N271A, at 10 mM, normalized to buffer (0%) and 10 mM Trp (100%) on WT) [%]	agonist potency (GPR139; ref Shi et al.)	agonist potency (GPR139; ref Dvorak et al.)
N[C@@H](Cc1c[nH]c2ccccc12)C(=O)O [L-Trp, tryptophan]	> 10000	–	–	–	–	–	–	–	hundred-micromolar range	31 ± 5	–	–
